# Results: ChEMBL document CHEMBL1122324, “New antihypertensive cannabinoids” (1983)
# Key:
# Conditions in all cases: route oral
# [1] = tested on: Rattus norvegicus; experiment: Percentage decrease in systolic blood pressure after 4 hr at 100 mg/kg administered perorally in rats; format: functional, Artery
# [2] = tested on: Rattus norvegicus; experiment: percentage decrease in heart rate after 4 hr at a dose of 100 mg/kg administered perorally in rats; format: functional
# [3] = tested on: Rattus norvegicus; experiment: Effect on spontaneous motor activity in rats after 2 hr at 300 mg/kg given perorally; values less than 25 % are inactive; format: functional
# [4] = tested on: Rattus norvegicus; experiment: percentage decrease in heart rate after 24 hr at a dose of 30 mg/kg administered perorally in rats.; format: functional
# [5] = tested on: Rattus norvegicus; experiment: Percentage decrease in systolic blood pressure after 6 hr at 3 mg/kg administered perorally in rats; format: functional, Artery
# [6] = tested on: Rattus norvegicus; experiment: Effect on spontaneous motor activity in rats after 1 hr at 100 mg/kg given perorally; format: functional
# [7] = tested on: Rattus norvegicus; experiment: percentage decrease in heart rate after 6 hr at a dose of 3 mg/kg administered perorally in rats.; format: functional
# [8] = tested on: Rattus norvegicus; experiment: Percentage decrease in systolic blood pressure after 24 hr at 1 mg/kg administered perorally in rats; format: functional, Artery
# [9] = tested on: Rattus norvegicus; experiment: percentage decrease in heart rate after 1 hr at a dose of 1 mg/kg administered perorally in rats.; format: functional
# [10] = tested on: Rattus norvegicus; experiment: percentage decrease in heart rate after 4 hr at a dose of 30 mg/kg administered perorally in rats.; format: functional
# [11] = tested on: Rattus norvegicus; experiment: Cumulative effect on spontaneous motor activity in rats at 10 mg/kg given perorally; format: functional
# [12] = tested on: Rattus norvegicus; experiment: percentage decrease in heart rate after 1 hr at a dose of 3 mg/kg administered perorally in rats.; format: functional
# [13] = tested on: Rattus norvegicus; experiment: percentage decrease in heart rate after 4 hr at a dose of 3 mg/kg administered perorally in rats.; format: functional
# [14] = tested on: Rattus norvegicus; experiment: Effect on spontaneous motor activity in rats after 2 hr at 30 mg/kg given perorally; values less than 25 % are inactive; format: functional
# [15] = tested on: Rattus norvegicus; experiment: Effect on spontaneous motor activity in rats after 1 hr at 30 mg/kg given perorally; format: functional
# [16] = tested on: Rattus norvegicus; experiment: Cumulative effect on spontaneous motor activity in rats at 300 mg/kg given perorally; values less than 25 % are inactive; format: functional
# [17] = tested on: Rattus norvegicus; experiment: Cumulative effect on spontaneous motor activity in rats at 30 mg/kg given perorally; format: functional
# [18] = tested on: Rattus norvegicus; experiment: percentage decrease in heart rate after 6 hr at a dose of 30 mg/kg administered perorally in rats.; format: functional
# [19] = tested on: Rattus norvegicus; experiment: percentage decrease in heart rate after 6 hr at a dose of 1 mg/kg administered perorally in rats.; format: functional
# [20] = tested on: Rattus norvegicus; experiment: Percentage decrease in systolic blood pressure after 6 hr at 1 mg/kg administered perorally in rats; format: functional, Artery
# [21] = tested on: Rattus norvegicus; experiment: Percentage decrease in systolic blood pressure (heart rate) after 24 hr at 30 mg/kg administered perorally in rats; format: functional, Artery
# [22] = tested on: Rattus norvegicus; experiment: Percentage decrease in systolic blood pressure (heart rate) after 4 hr at 10 mg/kg administered perorally in rats; format: functional, Artery
# [23] = tested on: Rattus norvegicus; experiment: percentage decrease in heart rate after 24 hr at a dose of 10 mg/kg administered perorally in rats.; format: functional
# [24] = tested on: Rattus norvegicus; experiment: Percentage decrease in systolic blood pressure after 4 hr at 1 mg/kg administered perorally in rats; format: functional, Artery
# [25] = tested on: Rattus norvegicus; experiment: Percentage decrease in systolic blood pressure (heart rate) after 1 hr at 10 mg/kg administered perorally in rats; format: functional, Artery
# [26] = tested on: Rattus norvegicus; experiment: Effect on spontaneous motor activity in rats after 2 hr at 10 mg/kg given perorally; format: functional
# [27] = tested on: Rattus norvegicus; experiment: percentage decrease in heart rate after 1 hr at a dose of 10 mg/kg administered perorally in rats.; format: functional
# [28] = tested on: Rattus norvegicus; experiment: Effect on spontaneous motor activity in rats after 1 hr at 10 mg/kg given perorally; format: functional
# [29] = tested on: Rattus norvegicus; experiment: Effect on spontaneous motor activity in rats after 2 hr at 100 mg/kg given perorally; format: functional
# [30] = tested on: Rattus norvegicus; experiment: percentage decrease in heart rate after 6 hr at a dose of 10 mg/kg administered perorally in rats.; format: functional
# [31] = tested on: Rattus norvegicus; experiment: Percentage decrease in systolic blood pressure after 4 hr at 30 mg/kg administered perorally in rats; format: functional, Artery
# [32] = tested on: Rattus norvegicus; experiment: Percentage decrease in systolic blood pressure after 24 hr at 3 mg/kg administered perorally in rats; format: functional, Artery
# [33] = tested on: Rattus norvegicus; experiment: Percentage decrease in systolic blood pressure after 24 hr at 10 mg/kg administered perorally in rats; format: functional, Artery
# [34] = tested on: Rattus norvegicus; experiment: percentage decrease in heart rate after 4 hr at a dose of 1 mg/kg administered perorally in rats.; format: functional
# [35] = tested on: Rattus norvegicus; experiment: Percentage decrease in systolic blood pressure after 4 hr at 3 mg/kg administered perorally in rats; format: functional, Artery
# [36] = tested on: Rattus norvegicus; experiment: percentage decrease in heart rate after 4 hr at a dose of 10 mg/kg administered perorally in rats.; format: functional
# [37] = tested on: Rattus norvegicus; experiment: Cumulative effect on spontaneous motor activity in rats at 100 mg/kg given perorally; format: functional
# [38] = tested on: Rattus norvegicus; experiment: Percentage decrease in systolic blood pressure (heart rate) after 6 hr at 10 mg/kg administered perorally in rats; format: functional, Artery
# [39] = tested on: Rattus norvegicus; experiment: Effect on spontaneous motor activity in rats after 1 hr at 300 mg/kg given perorally; values less than 25 % are inactive; format: functional
# [40] = tested on: Rattus norvegicus; experiment: Percentage decrease in systolic blood pressure after 1 hr at 1 mg/kg administered perorally in rats; format: functional, Artery
# [41] = tested on: Rattus norvegicus; experiment: percentage decrease in heart rate after 24 hr at a dose of 1 mg/kg administered perorally in rats.; format: functional
# [42] = tested on: Rattus norvegicus; experiment: Percentage decrease in systolic blood pressure (heart rate) after 6 hr at 30 mg/kg administered perorally in rats; format: functional, Artery
# [43] = tested on: Rattus norvegicus; experiment: Percentage decrease in systolic blood pressure after 1 hr at 3 mg/kg administered perorally in rats; format: functional, Artery
# [44] = tested on: Rattus norvegicus; experiment: percentage decrease in heart rate after 24 hr at a dose of 3 mg/kg administered perorally in rats.; format: functional
# [45] = tested on: Rattus norvegicus; experiment: Percentage decrease in systolic blood pressure (heart rate) after 4 hr at 30 mg/kg administered perorally in rats; format: functional, Artery
# [46] = tested on: Rattus norvegicus; experiment: Percentage decrease in systolic blood pressure (heart rate) after 4 hr at 100 mg/kg administered perorally in rats; format: functional, Artery
# [47] = tested on: Rattus norvegicus; experiment: percentage decrease in heart rate after 4 hr at a dose of 30 mg/kg administered perorally in rats; format: functional
# [48] = tested on: Rattus norvegicus; experiment: percentage decrease in heart rate after 1 hr at a dose of 30 mg/kg administered perorally in rats; format: functional
# [49] = tested on: Rattus norvegicus; experiment: percentage decrease in heart rate after 24 hr at a dose of 3 mg/kg administered perorally in rats; format: functional
# [50] = tested on: Rattus norvegicus; experiment: percentage decrease in heart rate after 6 hr at a dose of 30 mg/kg administered perorally in rats; format: functional
# [51] = tested on: Rattus norvegicus; experiment: percentage decrease in heart rate after 6 hr at a dose of 10 mg/kg administered perorally in rats; format: functional
# [52] = tested on: Rattus norvegicus; experiment: Percentage decrease in systolic blood pressure after 1 hr at 10 mg/kg administered perorally in rats; format: functional, Artery
# [53] = tested on: Rattus norvegicus; experiment: Percentage decrease in systolic blood pressure after 6 hr at 30 mg/kg administered perorally in rats; format: functional, Artery
# [54] = tested on: Rattus norvegicus; experiment: percentage decrease in heart rate after 1 hr at a dose of 3 mg/kg administered perorally in rats; format: functional
# [55] = tested on: Rattus norvegicus; experiment: percentage decrease in heart rate after 24 hr at a dose of 30 mg/kg administered perorally in rats; format: functional
# [56] = tested on: Rattus norvegicus; experiment: percentage decrease in heart rate after 1 hr at a dose of 10 mg/kg administered perorally in rats; format: functional
# [57] = tested on: Rattus norvegicus; experiment: Percentage decrease in systolic blood pressure after 1 hr at 30 mg/kg administered perorally in rats; format: functional, Artery
# [58] = tested on: Rattus norvegicus; experiment: Percentage decrease in systolic blood pressure after 6 hr at 10 mg/kg administered perorally in rats; format: functional, Artery
# [59] = tested on: Rattus norvegicus; experiment: Percentage decrease in systolic blood pressure after 24 hr at 30 mg/kg administered perorally in rats; format: functional, Artery
# [60] = tested on: Rattus norvegicus; experiment: percentage decrease in heart rate after 4 hr at a dose of 10 mg/kg administered perorally in rats; format: functional
# [61] = tested on: Rattus norvegicus; experiment: percentage decrease in heart rate after 24 hr at a dose of 10 mg/kg administered perorally in rats; format: functional
# [62] = tested on: Rattus norvegicus; experiment: percentage decrease in heart rate after 6 hr at a dose of 3 mg/kg administered perorally in rats; format: functional
# [63] = tested on: Rattus norvegicus; experiment: Percentage decrease in systolic blood pressure after 4 hr at 10 mg/kg administered perorally in rats; format: functional, Artery
# [64] = tested on: Rattus norvegicus; experiment: percentage decrease in heart rate after 4 hr at a dose of 3 mg/kg administered perorally in rats; format: functional
compound,measurement,setting,value
CCCCCC(C)C(C)c1cc(O)c2c(c1)OC(C)(C)C1=C2CN(C(=O)CCCO)CC1 (configuration not stated),Decrease in Systolic blood pressure,[1],0%
same,Heart rate,[2],19%
CCCCCC(C)C(C)c1cc(O)c2c(c1)OC(C)(C)C1CCN(C(=O)CN3CCCCC3)C=C21 (configuration not stated),Decrease in Systolic blood pressure,[1],10%
same,Heart rate,[2],-8%
CCCCCC(C)C(C)c1cc(O)c2c(c1)OC(C)(C)C1=C2CN(C(=O)CO)CC1 (configuration not stated),Activity,[3],-42%
same,Heart rate,[4],-1%
same,Decrease in Systolic blood pressure,[5],3%
same,Activity,[6],29%
same,Heart rate,[7],-12%
same,Decrease in Systolic blood pressure,[8],-5%
same,Heart rate,[9],-18%
same,Heart rate,[10],25%
same,Activity,[11],50%
same,Heart rate,[12],-3%
same,Heart rate,[13],-1%
same,Activity,[14],23%
same,Activity,[15],67%
same,Activity,[16],-45%
same,Activity,[17],60%
same,Heart rate,[18],6%
same,Heart rate,[19],-22%
same,Decrease in Systolic blood pressure,[20],-5%
same,Decrease in Systolic blood pressure,[21],16%
same,Decrease in Systolic blood pressure,[22],34%
same,Heart rate,[23],11%
same,Decrease in Systolic blood pressure,[24],0%
same,Decrease in Systolic blood pressure,[25],20%
same,Activity,[26],116%
same,Heart rate,[27],12%
same,Activity,[28],38%
same,Activity,[29],32%
same,Heart rate,[30],7%
same,Decrease in Systolic blood pressure,[31],26%
same,Decrease in Systolic blood pressure,[32],3%
same,Decrease in Systolic blood pressure,[33],4%
same,Heart rate,[34],-18%
same,Decrease in Systolic blood pressure,[35],15%
same,Heart rate,[36],25%
same,Activity,[37],30%
same,Decrease in Systolic blood pressure,[38],19%
same,Activity,[39],-46%
same,Decrease in Systolic blood pressure,[40],0%
same,Heart rate,[41],-18%
same,Decrease in Systolic blood pressure,[42],24%
same,Decrease in Systolic blood pressure,[43],9%
same,Heart rate,[44],6%
CCCCCC(C)C(C)c1cc(O)c2c(c1)OC(C)(C)C1=C2CN(C(=O)CCO)CC1 (configuration not stated),Decrease in Systolic blood pressure,[1],6%
same,Heart rate,[2],-1%
CC(CCCc1ccc(F)cc1)c1cc(O)c2c(c1)OC(C)(C)C1=C2CN(C(=O)CO)CC1 (configuration not stated),Decrease in Systolic blood pressure,[45],10%
same,Heart rate,[2],19%
same,Decrease in Systolic blood pressure,[46],8%
same,Heart rate,[47],30%
CC(CCCc1ccc(F)cc1)c1cc(O)c2c(c1)OC(C)(C)C1=C2CN(C(=O)CCCO)CC1 (configuration not stated),Heart rate,[48],2%
same,Heart rate,[49],-24%
same,Decrease in Systolic blood pressure,[5],9%
same,Heart rate,[50],9%
same,Heart rate,[51],16%
same,Decrease in Systolic blood pressure,[52],11%
same,Decrease in Systolic blood pressure,[53],12%
same,Heart rate,[54],-17%
same,Heart rate,[55],15%
same,Heart rate,[56],3%
same,Decrease in Systolic blood pressure,[1],32%
same,Decrease in Systolic blood pressure,[57],11%
same,Heart rate,[2],20%
same,Decrease in Systolic blood pressure,[31],26%
same,Decrease in Systolic blood pressure,[32],-8%
same,Decrease in Systolic blood pressure,[33],17%
same,Decrease in Systolic blood pressure,[58],19%
same,Heart rate,[47],23%
same,Decrease in Systolic blood pressure,[35],5%
same,Decrease in Systolic blood pressure,[59],22%
same,Heart rate,[60],18%
same,Heart rate,[61],6%
same,Heart rate,[62],5%
same,Decrease in Systolic blood pressure,[63],28%
same,Heart rate,[64],0%
same,Decrease in Systolic blood pressure,[43],-6%
C#CCN1CCC2=C(C1)c1c(O)cc(C(C)C(C)CCCCC)cc1OC2(C)C (configuration not stated),Decrease in Systolic blood pressure,[32],4%
same,Decrease in Systolic blood pressure,[33],27%
same,Decrease in Systolic blood pressure,[35],7%
same,Decrease in Systolic blood pressure,[63],23%
